Experiments:
Assay type in all cases: physicochemical
[1] = Tablet friability, Vanderkamp Friabulator (100 rotations/4 minutes)
Procedure: Friability is a standard test known to one skilled in the art. Friability is measured under standardized conditions by weighing out a certain number of tablets (generally 20 tablets or less), placing them in a rotating Plexiglas drum in which they are lifted during replicate revolutions by a radial lever, and then dropped approximately 8 inches. After replicate revolutions (typically 100 revolutions at 25 rpm), the tablets are reweighed and the percentage of formulation abraded or chipped is calculated. The friability of the tablets, of the present invention, is preferably in the range of about 0% to 3%, and values about 1%, or less, are considered acceptable for most drug and food tablet contexts. Friability which approaches 0% is particularly preferred.
(§1) All four formulations were compressed on the compaction simulator using either 0.344″×0.688″ oval tooling, or ½″ standard round concave (SRC) tooling. The tablets were tested for hardness (kP scale), using a Schleuniger hardness tablet tester (Dr. Schleuniger Pharmatron AG, Solothurn, Switzerland), and for friability (100 rotations/4 minutes) using a Vanderkamp Friabulator Tablet Tester (Vankel, Cary, N.C., US).

[2] = Tablet hardness, Schleuniger hardness tablet tester; details: Table 4C, low drug loading, diluent MCC
Procedure: as §1

[3] = Slug (compact) hardness, Schleuniger hardness tablet tester; details: diluent MCC
Source text: A compaction simulator was used to compress the blends. The compaction simulator was designed as a single station tablet press in which the compression dwell time can be adjusted to simulate different types of tablet presses. All the formulations were slugged on the compaction simulator configured as the Kilian RX-67 press with a dwell time of 0.3145 seconds using […] round flat face tooling. The slugs were then comminuted using a Fitz mill with a 0.125″ screen with knives forward and run at slow speed. […] The slugs were tested for hardness (kP scale), using a Schleuniger hardness tablet tester (Dr. Schleuniger Pharmatron AG, Solothurn, Switzerland).

[4] = Tablet hardness, Schleuniger hardness tablet tester
[5] = Indices of tableting performance (Hiestand) of bulk azithromycin; details: forms N, M, G, A milled, F and J unmilled, sesquihydrate
Procedure: Indices of tableting performance, for several azithromycin forms, were assessed to identify any mechanical deficiencies or attributes that may affect tablet formulation for these azithromycin forms. This assessment was performed in accordance with the procedures described in “Indices of Tableting, Performance” […] and D. P. Smith, Powder Technology 38 [1984] pp. 145-159. Specifically, the Brittle Fracture Index, BFI, was calculated from the ratio of a material's regular tensile strength to its compromised tensile strength. Strain Index, SI, was determined from the dynamic indentation hardness test. Worst Case Bonding Index was determined by assessing the extent of particle bonding remaining after decompression assuming a very short compression dwell time and a plastic mechanism of particle separation during decompression. Tableting Indices were determined for bulk azithromycin lots of six different crystalline forms, specifically forms N, M, G, A, F and J. Forms N, M and G were milled with a Fitzmill (Model JT, The Fitzpatrick Co., Elmhurst, Ill.) using a 0.027'' screen and knives at high speed in an attempt to match the smaller particle size of milled Form A. Unmilled forms F and J were evaluated “as is” due to their relatively small particle sizes.

[6] = Density and Carr's Compressibility Index (flowability) of dry blends and dry granulations
Source text: Carr's Compressibility Index was used to evaluate the flowability of the four dry granulations. Carr's Compressibility Index is a simple test to evaluate flowability by comparing both the initial and final (tapped) bulk volumes and the rate of packing down. A useful empirical guide to flow is given by Carr's compressibility index: Compressibility Index(%)=[(tapped density−initial density)/tapped density]×100 […] The procedure is described in Int. J. Pharm. Tech. & Prod. Mfr., 6(3) 10-16, 1985.

[7] = Table 4D, high drug loading, diluent MCC, modified capsule shape
[8] = Table 4A, low drug loading (35.2 wt % azithromycin), diluent MCC
[9] = Table 4B, high drug loading (58.2 wt % azithromycin), diluent MCC
[10] = Table 7A, 55.76 wt % azithromycin, lactose anhydrous, corn starch, roller compaction 850 psi, sesquihydrate
[11] = Table 4C, low drug loading, diluent Lactose, Oval tooling
[12] = Table 4C, low drug loading, diluent Lactose, SRC (½″) tooling

## CC[C@H]1OC(=O)[C@H](C)[C@@H](O[C@H]2C[C@@](C)(OC)[C@@H](O)[C@H](C)O2)[C@H](C)[C@@H](O[C@@H]2O[C@H](C)C[C@H](N(C)C)[C@H]2O)[C@](C)(O)C[C@@H](C)CN(C)[C@H](C)[C@@H](O)[C@]1(C)O [Form G, azithromycin sesquihydrate]
[1]; Table 4C, low drug loading, diluent MCC, Oval tooling
  Friability: 1.30%
[1]; Table 4C, low drug loading, diluent MCC, SRC (½″) tooling
  Friability: 0.78%
[1]; [7]
  Friability: 0.41%
[2]; Oval tooling
  Avg Tablet Hardness: 6.1 kP
[2]; SRC (½″) tooling
  Avg Tablet Hardness: 5.3 kP
[3]; Table 4A, low drug loading (35.2 wt % azithromycin)
  Avg Slug Hardness: 13 kP
[3]; Table 4B, high drug loading (58.2 wt % azithromycin)
  Avg Slug Hardness: 9 kP
[4]; [7]
  Avg Tablet Hardness: 5.8 kP
[5]
  Strain Index (SI): 0.0043
  Tensile Strength: 1.03 Mpa
  Worst Case Bonding Index (BIw) × 10^2: 0.8
[6]; [8]
  Dry Granulation Carr's Index: 25%
  Dry Granulation Density As Is: 0.51 g/cc
  Dry Granulation Density Tapped: 0.68 g/cc
[6]; [9]
  Dry Granulation Carr's Index: 25%
  Dry Granulation Density As Is: 0.53 g/cc
  Dry Granulation Density Tapped: 0.71 g/cc
[6]; Table 7A, 55.76 wt % azithromycin, lactose anhydrous, corn starch, roller compaction 850 psi
  Dry Granulation Density Tapped: 0.86 g/cc
[6]; [10]
  Dry Granulation Carr's Index: 22%
  Dry Granulation Density As Is: 0.67 g/cc

## CCC1OC(=O)C(C)C(O[C@H]2C[C@@](C)(OC)[C@@H](O)C(C)O2)C(C)[C@@H](OC2OC(C)CC(N(C)C)[C@H]2O)[C@@](C)(O)C[C@@H](C)CN(C)[C@H](C)[C@@H](O)[C@]1(C)O (stereo partly drawn) [Form H, azithromycin monohydrate hemi-1,2 propanediol solvate]
[1]; [11]
  Friability: Broken
[1]; [12]
  Friability: 0.53%
[4]; [11]
  Avg Tablet Hardness: 7.0 kP
[4]; [12]
  Avg Tablet Hardness: 7.5 kP

Source: patent US20030228357A1, “Dry granulated formulations of azithromycin” (Pfizer Inc., priority 2002, published 2003)
